Assay results published in US20090176817A1, “Method of Treatment of Diarrhea-Predominant Irritable Bowel Syndrome in a Subject” (priority 2005, published 2009).
Marks after values point to notes of the source that are not given here.

Experiments:
Type in all cases: in vivo, human
[1] = system: diarrhea-predominant IBS subjects; assay: Study S241.3.006: safety; conditions: for Constipation: human, in vivo, 12 weeks
Experimental: Safety was evaluated by physical examination, ECG, vital signs, clinical laboratory evaluations, concomitant medications, and AEs. An independent Gastrointestinal Events Review Board (GERB) was established to advise on gastrointestinal (GI) AEs during the course of the study and other safety events as considered necessary.

[2] = system: diarrhea-predominant IBS subjects; assay: Study S241.3.009: interruption of activities assessment; conditions: for Percentage of Subjects Who Worsened from Baseline: Interruption of Activities: S241.3.009, 2 mg TID, observed value
From the text: Studies S24 1.3.OO6, S24 1.3.0 1 1, and S24 1.3.009 used the following efficacy measurements: • The subjects answered the following three questions with “yes” or “no” using a phone diary at the end of each week: • a) During the last week, did you experience adequate relief of your IBS symptoms, such as abdominal pain, abdominal discomfort, abnormal bowel habits? • b) During the last week, did you experience adequate relief of your abdominal pain and/or discomfort? • c) During the last week, did you experience adequate relief of your abnormal bowel habits? • The subjects rated the following symptoms using the phone diary at the end of each day: • abdominal pain/discomfort (five-point scale); • stool consistency (seven-point Bristol Stool Scale); • stool frequency (number of bowel movements each day); • urgency (five-point scale); • straining (yes or no); • feeling of incomplete defecation (yes or no); • bloating or feeling of abdominal distension (five-point scale). • In Studies S241 A006 and S241.3.009, subjects completed the IBS-QOL Survey at Baseline (Day 1) and at the end of treatment. In Study S24 1.3.0 1 1, subjects completed the IBS-QOL Survey at Baseline (Day 1), at the end of the three-month treatment period, and at the end of rerandomized treatment.
Other secondary efficacy parameters for all three studies included: • Responder rate for the weekly diary questions on adequate relief at each month, where a responder for a month (monthly responder) was defined as a subject who answered the weekly question with “yes” at least twice for that month. The responder rate was the percentage of responders within a treatment group. The all-month responder rate for the weekly diary questions on adequate relief was also evaluated, where an all-month responder was defined as a subject who answered the weekly question with “yes” at least twice for each month. The all-month responder rate was the percentage of all-month responders within a treatment group; • Adequate relief rate for the weekly diary questions was calculated for each subject as the number of weekly assessments with adequate relief (“yes”) divided by the total number of weekly assessments; • Percentage of subjects with adequate relief for the weekly diary questions at each week; • Daily diary questions regarding abdominal pain/discomfort (five-point scale), stool consistency (seven-point scale), stool frequency (number of bowel movements each day), straining (yes or no), urgency (five-point scale), feeling of incomplete evacuation (yes or no), and bloating or feeling of abdominal distention (five-point scale); • QOL data assessed by the IBS-QOL questionnaire; and • Question to determine the interruption of activities.

[3] = system: non-constipated IBS patients; assay: clinical; conditions: linear regression
Experimental: (§1) Various covariates were screened during development of the population pharmacokinetic model, including age, height, weight, body surface area, body mass index, race, gender, smoking status, serum creatinine levels, serum creatinine clearance, total bilirubin levels, cilansetron dose, and concomitant medication usage. Some efficacy and safety parameters were also evaluated in this population analysis using correlation analyses. Efficacy parameters evaluated included overall relief of IBS symptoms (Responder or Non-Responder), intensity of abdominal pain, number of stools and stool consistency, symptoms of abdominal and rectal discomfort (straining, urgency, feeling of incomplete defecation, passage of mucus, bloating, and feeling of abdominal distension), and upper GI symptoms at Visit 5 (vomiting, heartburn, early satiety, postprandial fullness, sensation of prolonged digestion, and nausea). Safety parameters evaluated included the top ten most frequently observed adverse events (constipation, flatulence, nausea, abdominal pain, headache, dyspepsia, infection, gastrointestinal disorders, anorexia, and diarrhea).
(§2) A statistically significant negative correlation was found between exposure (AUC and Cmax at steady state) and some efficacy parameters including change in stool consistency (adjusted for baseline) and the experience of straining. Patients with higher exposure to cilansetron and/or its 4-hydroxy metabolites were more likely to have lower stool consistency scores (a tendency for harder stools) than patients with lower exposure. […] In addition, patients with higher exposure to cilansetron were more likely to experience straining.

clinical = conditions: both sexes, human, in vivo
Experimental: as §1, §2

[4] = system: healthy, elderly subjects; assay: Study K.241.5014: gastric emptying time, elderly, 8 mg TID; conditions: 8 mg TID oral 14 days, mean (SD)
From the text: The effect of cilansetron on gastric emptying time and colonic transit time has been studied in 1 clinical study in healthy young subjects and 2 studies in elderly subjects. For measurement of gastric emptying time, breath samples for the determination of the ^12C/^13C ratio were taken on the last day of each treatment period immediately after ingestion of a ^13C labeled meal. The patients' breath was collected in separate 15-minute intervals, for four hours in total. ^13CO2 measurements were performed with an isotope ratio mass spectrometer. The half-life (TK) and lag-time (Tlag), which describe the duration of gastric emptying, were used as the primary parameters to evaluate gastric emptying time. In all 3 studies, colonic transit time was measured by administration of radio-opaque markers for the last six days of each treatment period, followed by a single abdominal X-ray image at 24 hours after ingestion of the last set of markers. The numbers of markers within the colon were used to calculate segmental (right colon, left colon, and rectosigmoid) and total colonic transit time.
Studies K.241.5013 and K.241.5014 were randomized, double-blind, placebo-controlled, 2-way crossover studies in 8 healthy male and female elderly subjects, each (ITT population, aged 64-83 years in K.241.5013 and 66-84 years in K.241.5014). […]

In the case of Cc1nccn1C[C@H]1CCc2c(c3cccc4c3n2CCC4)C1=O [Cilansetron, (R)-(−)-4,5,6,8,9,10-hexahydro-10-[(2-methyl-1H-imidazol-1-yl)methyl]-11H-pyrido-[3,2,1-jk]-carbazol-11-one], the “Number of subjects who died” value ([1]; 2 mg TID, 352 randomized, S241.3.006) is reported as 0 n (%), the Constipation ([1]; female) is reported as 23% and the Constipation ([1]; male) is reported as 8%. The “Subjects “not at all or rarely” bothered by IBS symptoms” value ([2]; Endpoint) was 54%, the “Subjects worsened from Baseline, interruption of activities” value ([2]; Month 1) was 5% and the “Percentage of Subjects Who Worsened from Baseline: Interruption of Activities” value (“Percentage of Subjects Who Worsened” below) ([2]; Month 1) was 5%. The “Percentage of Subjects Who Worsened” value ([2]; Month 3) was 3%, the “Percentage of Subjects Who Worsened” value ([2]; Month 6) was 2% and the “Decrease in stool consistency score per 600 ng*h/mL AUC or 100 ng/mL Cmax” value [3] was 0.5 point. The AUC (clinical) was 360 ng·h/mL, the Cmax (clinical) was 65 ng/mL and the “gastric emptying time T½” value [4] was 166 (18) min. For the same compound, the “gastric emptying time Tlag” value ([4]; significant vs placebo (p < 0.05)) was 114 (18)* min.
